From ChEMBL document CHEMBL5727003, “Therapeutic inhibitory compounds” (2019)

Target: Plasma kallikrein (Homo sapiens, UniProt P03952)
Assay: In Vitro Enzyme Inhibition: A 10 mM solution of the test compound was made in DMSO. This solution was serially diluted 1:5 in DMSO to yield 2000, 400, 80, 16, 3.2, 0.64, 0.128, 0.0256 and 0.00512 μM compound test solutions. A control tube containing only DMSO is included. 16 μL of each compound test solution was combined with 384 μL of assay buffer (50 mM Tris-HCl pH 7.5, 150 mM NaCl, 0.01% Triton X-100) to yield a “4× test compound buffer stock”.Separately, a 40 nM solution of human Plasma Kallikrein (Abcam) and a 93.6 μM solution Pro-Phe-Arg-AMC (Bachem) were made using assay buffer. These solutions are hereby referred to as 4×hPK and 2×PFR-AMC, respectively.60 μL of each 4× test compound buffer stock was combined with 60 μL of 4×hPK to yield 120 μL of “2× test compound buffer stock/2×hPK”. 50 μL was removed from this mixture and placed into duplicate wells on a Microfluor 1Black U-bottom microtiter plate (Thermo Scientific). This plate was incubated for 5 minutes at 37° C. To each well, 50 μL of pre-warmed 2×PFR-AMC was added to start the enzymatic reaction. Cleavage of PFR-AMC was monitored in a Biotek Synergy H4 reader set at 37° C. Readings are taken every 43 seconds for 1 hour. The highest mean velocity over 20 reads (˜15 minutes) is used to calculate the IC50. The IC50 is calculated using the Gen5 (Biotek Instruments).

Chain of Plasma kallikrein (P03952 20-390 limits assumed): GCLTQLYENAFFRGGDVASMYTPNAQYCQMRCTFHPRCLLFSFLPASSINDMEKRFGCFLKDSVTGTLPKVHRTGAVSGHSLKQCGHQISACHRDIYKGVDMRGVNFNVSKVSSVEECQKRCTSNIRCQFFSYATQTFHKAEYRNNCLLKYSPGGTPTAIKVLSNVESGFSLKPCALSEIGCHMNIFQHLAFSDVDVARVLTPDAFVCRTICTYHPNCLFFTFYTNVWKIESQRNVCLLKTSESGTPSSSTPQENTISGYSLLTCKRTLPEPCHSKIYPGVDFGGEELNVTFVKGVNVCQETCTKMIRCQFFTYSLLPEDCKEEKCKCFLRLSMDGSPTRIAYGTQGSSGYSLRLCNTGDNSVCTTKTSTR
Chain of Plasma kallikrein (P03952 391-638 limits assumed): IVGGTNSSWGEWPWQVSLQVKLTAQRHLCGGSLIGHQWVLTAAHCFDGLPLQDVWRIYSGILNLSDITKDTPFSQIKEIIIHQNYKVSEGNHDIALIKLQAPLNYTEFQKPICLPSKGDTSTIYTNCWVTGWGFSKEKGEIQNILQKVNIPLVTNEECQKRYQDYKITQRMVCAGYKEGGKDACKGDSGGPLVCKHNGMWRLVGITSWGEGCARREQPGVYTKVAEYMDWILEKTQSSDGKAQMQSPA

Structure (SMILES)	IC50
Cc1cc(N)nc(C)c1CNC(=O)c1cn(Cc2ccc3ncc(Cl)cc3c2)c2cccnc12	< 100 nM
Cc1cc(N)nc(C)c1CNC(=O)c1cc(C(F)(F)F)n(Cc2ccc3ncc(Cl)cc3c2)n1	1000 to 10000 nM
Cc1cc(N)nc(C)c1CNC(=O)c1nn(Cc2ccc3ncc(Cl)cc3c2)nc1C(F)(F)F	< 100 nM
Cc1cc(N)nc(C)c1CNC(=O)c1cn(Cc2ccc3ncc(Cl)cc3c2)c(CO)n1	< 100 nM
Cc1cc(N)nc(C)c1CNC(=O)c1ccn(Cc2ccc3ncc(Cl)cc3c2)n1	< 100 nM
